Results: patent US20260234150A1, “COMPOUND FOR INHIBITING NLRP3, PREPARATION METHOD, AND USE” (DOVETREE MEDICINES UNUS, INC., priority 2023, published 2026)
Where two headings read alike, the source gives them in different places.

Experiments:
Format in all cases: in vitro ADME
[1] = Liver microsome metabolic stability, rat; conditions: rat liver microsomes, 45 min incubation
Protocol: Purpose: This experiment investigates the metabolic stability of the compound in liver microsomes of different species such as humans, mice and rats, and the residual content of the test compound after incubation with liver microsomes of different species such as humans, mice and rats.
Preparation of 500 μM solution of target compound and positive control: 5 μL of each 10 mM stock solution was taken, added to 95 μL acetonitrile, and mixed for 30 s;
Preparation of 6 mM NADPH solution: 100 mM Stock aliquot liquid was diluted with Mg-Mg —K-Buffer.
2.1.1 Liver microsome solution: 18.75 μL of 20 mg/mL HLM, RLM, MLM, DLM, MOLM (final concentration: 0.5 mg/ml) were taken and placed them in each well of a 96-well plate;
2.1.2 1.5 μL of 500 μM solution of each compound was added respectively;
2.1.3 479.8 μL of phosphate buffer was taken, then added to each compound well, and mixed at 1000 rpm in an oscillating mixer for 10 s.
30 μL of the above samples were taken and aliquoted to a new 96-well plates respectively (including NADPH group, n=2, and no NADPH group at 0 and 45 min, n=1), marked as 0, 5, 15, 30 and 45 min; […]
The slope was calculated based on the LN value of the compound concentration percentage and time as the coordinate axis, and the residual content of the compound after incubation with liver microsomes was calculated based on the slope and formula. […]

CYP2D6 = target: T1, CYP2D6 (Homo sapiens, UniProt P10635); experiment: CYP450 enzyme inhibition in human liver microsomes, CYP2D6; conditions: substrate Dextromethorphan, read-out: Inhibitory activity IC50 (μM) CYP2D6
T1 construct: 0.05 mg/mL liver microsome (BioIVT, IHG) phosphate buffer solution; tissue BioIVT IHG; host or cells: human liver microsomes
Protocol: (§1) This experiment incubates the compound, liver microsomes and different CYP subtype enzyme substrates in a 37° C. water bath to measure the amount of substrate metabolites produced and evaluate the inhibitory effect of the compound of the present disclosure on CYP enzymes based on the IC50 value.
(§2) i. The compound was diluted to 0, 0.02 mM, 0.06 mM, 0.2 mM, 0.6 mM, 2 mM and 6 mM concentrations with DMSO (Aladdin, catalog number: D103273-500 ml).
(§3) ii. The enzyme substrate solutions of each CYP subtype were prepared by phosphate buffer (sigma: V900050-500G).
(§4) iii. Sample incubation. […] After centrifugation at 4000 rpm and 4° C. for 40 min, the supernatant was diluted with pure water according to the response of the substrate metabolites and then detected by UPLC-MS/MS (Sciex, Q-Trap 4500). […]
(§5) The inhibitory effect of the compound on each P450 enzyme in human liver microsomes was calculated as the percentage of reduced metabolite formation compared with the non-inhibitory control (i.e., blank DMSO). The IC50 value for each P450 enzyme in human liver microsomes was calculated using the logarithm of the remaining activity and the inhibitor concentration using Graphpad Prism software. […]

CYP3A4 = target: T2, CYP3A4 (Homo sapiens, UniProt P08684); experiment: CYP450 enzyme inhibition in human liver microsomes, CYP3A4
T2 construct: 0.05 mg/mL liver microsome (BioIVT, IHG) phosphate buffer solution; tissue BioIVT IHG; host or cells: human liver microsomes
Protocol: as §1, §2, §3, §4, §5

T2 sequence (P08684 whole entry): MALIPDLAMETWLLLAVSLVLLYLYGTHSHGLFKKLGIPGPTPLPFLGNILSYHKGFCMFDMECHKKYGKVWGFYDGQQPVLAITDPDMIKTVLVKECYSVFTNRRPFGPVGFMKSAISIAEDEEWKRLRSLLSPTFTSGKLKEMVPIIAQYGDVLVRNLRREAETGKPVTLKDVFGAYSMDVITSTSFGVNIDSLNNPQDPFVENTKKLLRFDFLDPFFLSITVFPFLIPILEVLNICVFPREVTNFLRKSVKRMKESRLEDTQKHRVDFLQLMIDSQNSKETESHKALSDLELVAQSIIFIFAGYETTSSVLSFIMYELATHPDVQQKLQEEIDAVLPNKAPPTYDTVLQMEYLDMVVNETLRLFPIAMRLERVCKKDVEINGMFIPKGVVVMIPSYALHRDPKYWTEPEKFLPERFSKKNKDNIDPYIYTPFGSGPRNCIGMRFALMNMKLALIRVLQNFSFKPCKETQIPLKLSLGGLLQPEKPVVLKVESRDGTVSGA
T1 sequence (P10635 whole entry): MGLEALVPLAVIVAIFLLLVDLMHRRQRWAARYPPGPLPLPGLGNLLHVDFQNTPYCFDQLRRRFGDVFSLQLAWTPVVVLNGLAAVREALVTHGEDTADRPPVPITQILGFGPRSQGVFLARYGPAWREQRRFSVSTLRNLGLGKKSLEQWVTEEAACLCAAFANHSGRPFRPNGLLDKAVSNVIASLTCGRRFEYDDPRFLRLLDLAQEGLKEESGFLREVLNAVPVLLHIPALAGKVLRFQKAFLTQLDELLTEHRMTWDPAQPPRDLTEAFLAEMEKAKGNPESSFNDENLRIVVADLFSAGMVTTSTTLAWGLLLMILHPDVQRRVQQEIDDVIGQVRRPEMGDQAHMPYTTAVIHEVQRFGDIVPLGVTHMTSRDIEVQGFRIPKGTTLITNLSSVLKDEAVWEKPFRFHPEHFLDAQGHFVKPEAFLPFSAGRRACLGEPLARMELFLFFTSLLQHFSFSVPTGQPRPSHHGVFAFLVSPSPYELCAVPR

- LMS (r)(% rem, 45 min) [1]: 82.45 % rem
- IC50 (CYP2D6): > 30 µM
- IC50 (CYP3A4; substrate Midazolam, read-out: Inhibitory activity IC50 (μM) CYP3A4-M): 28.7 µM
- IC50 (CYP3A4; substrate Testosterone, read-out: Inhibitory activity IC50 (μM) CYP3A4-T): > 30 µM
SMILES: CC(=O)N1CCOC[C@H]1CNc1nc2nc(-c3c(C)cc(C(F)(F)F)cc3O)ccc2o1 [Compound 111]
